SMILES strings stand for the structures.

The subject of one assay is CD38. Briefly: CD38 expression by western blot in MM cell lines. The class given is cell-based, human. Here is the method:
(§1) Western Blot Analysis Cells were collected and centrifuged at 1200 rpm for 5 minutes at 4° C. Cells were washed with PBS and lysed in ice-cold lysis buffer [140 mmol/L NaCl, 10 mmol/L EDTA, 10% glycerol, 1% NP40, 20 mmol/L Tris (pH 7), 1 μMol/L pepstatin, 1 μg/mL aprotinin, 1 μg/mL leupeptin, 1 mmol/L sodium orthovanadate]. Samples were centrifuged at 10,000×g at 4° C. for 10 minutes, and supernatants were transferred to new tubes and western blots were performed following standard procedures. CD38 and anti-α-tubulin primary antibodies used in Western blot analyses were obtained from Cell Signaling (Boston, MA, USA). The horseradish peroxidase-conjugated secondary antibodies were from GE Healthcare (Chicago, IL, USA).

The subject of another assay is IRF-1. Briefly: Western blot of transcription factors in MM cell lines. The class given is cell-based, human. As to conditions: MOLP-8 cell line; 1 and 2.5 μM, 48 h. Here is the method:
as §1
(§2) To determine the mechanism by which EDO-S101 increases CD38 expression, the expression of the transcription factors NF-κB, AP-1 and IRF-1 which are known to be involved in regulating the expression of CD38 was evaluated. Treatment with EDO-S101 (1 and 2.5 μM) for 48 h increased the expression of c-Jun and c-Fos (subunits of the transcription factor AP-1) in two (MM1.S and RPMI-8226) of the four myeloma cell lines tested (FIG. 5). Additionally, EDO-S101 increased IRF-1 expression in the MOLP-8 cell line (FIG. 5).
In general terms: In western blotting, separated proteins are transferred to a membrane and probed.

The test system of assay [1] is c-Jun and c-Fos (subunits of the transcription factor AP-1). The description is as above. The class given is cell-based, human. Conditions: MM1.S and RPMI-8226 (two of four lines); 1 and 2.5 μM, 48 h. As for the experimental part: as §1, §2
The test system of a further assay is MICB. Nature of the assay: MICB expression on MM patients' plasma cells ex vivo. The class given is cell-based, human. As to conditions: 3 out of 6 patients analyzed, 48 hours. Here is the method: For surface staining, cells were incubated with the appropriate antibodies and 7AAD (Immunostep) for 15 min in the dark. Data were acquired using a FACSCalibur cytometer (BD Biosciences) and analyzed using Infinicyt™ software (Cytognos). Specifically, the expression of CD38 or ligands for NK cell activating receptors (MICA, MICB, ULBP1-3, PVR and CD112) in MM cell lines was determined on the viable cell population (7AAD-). In primary myeloma cells, the expression of CD38 was analyzed over the viable myeloma population using the panel CD138-FITC/CD56-PE/7AAD/CD38-APC, whereas MICA/B-AF488/CD56-PE/7AAD/CD38-APC panel was used to determine MICA/B expression. Normalized median fluorescence intensity (MFI) was calculated by dividing median fluorescence obtained with the specific antibody by median fluorescence of the corresponding isotype control. MFI for each treatment was expressed as a percentage relative to the control (100%, cells cultured in media with DMSO).

In assay [2] the test system is MM cell lines (MM.1S, RPMI-8226, MOLP-8). Nature of the assay: Daratumumab-mediated ADCC on pre-treated MM cells. As to conditions: pre-treatment 2.5 μM 48 hours, NK cells 1:1 + daratumumab 1 μg/mL, 4 hours, vs DMSO-pretreated. In kind it is cell-based, human. Here is the method: ADCC, CDC and apoptosis via cross-linking To assess the effect of tinostamustine pre-treatment on cytotoxic mechanisms mediated by daratumumab, MM cell lines were first incubated in presence of tinostamustine (2.5 μM) or DMSO for 48 hours. Cells were then washed to remove tinostamustine or DMSO from the culture medium, and the corresponding cytotoxic assay (ADCC, CDC or apoptosis via cross-linking) was performed.
For the evaluation of ADCC, tinostamustine or DMSO pre-treated cells were cocultured with NK cells obtained from healthy donors in the presence of daratumumab (1 μg/ml) or the corresponding isotype control for 4 hours (ratio 1:1). Briefly, peripheral blood mononuclear cells (PBMCs) were isolated from healthy donor buffy coats by Lymphoprep density gradient centrifugation. […] In all three assays, the cytotoxic effect on MM cells was evaluated by flow cytometry with Annexin V/7AAD staining after treatment with daratumumab. […]
MM cells (MM1.S, RPMI-8226, MOLP-8 cells pre-treated with 0 or 2.5 μM EDO-S101 in accordance with the methods outlined above) were co-cultured with NK-cells (ratio 1:1), in the presence of daratumumab (1 μg/mL) or the corresponding isotype control, for 4 hours at 37° C. […] ADCC was then evaluated using flow cytometry in accordance with the methods outlined above, using the following panel: CD38me-FITC/AnnexinV-PE/7AAD/CD45-APC.

A further assay concerns MM1S-luc derived tumors. Briefly: Disseminated human myeloma model, CB17-SCID mice. The class given is in vivo. Conditions: EDO-S101 15 mg/kg i.v. weekly, daratumumab 8 mg/kg i.p. weekly, 4 weeks; vehicle 33 days. As for the experimental part: MM1S-luc cells (3×10^6) were injected intravenously (i.v.) into CB17-SCID mice which were determined to have normal NK cells, monocytes and granulocytes (The Jackson Laboratory, Bar Harbor, ME, USA). Tumor development was monitored by non-invasive bioluminescence imaging (BLI) with a Xenogen IVIS 50 system (Caliper Life Sciences, Hopkinton, MA, USA). Mice were randomized into four groups (n=5/group): one receiving vehicle (i.v., weekly), another group receiving EDO-S101 (15 mg/kg i.v., weekly on Tuesdays), another group receiving daratumumab (8 mg/kg i.p., weekly on Wednesdays) and the last group receiving the double combination of EDO-S101+daratumumab. Both drugs were administered over a period of 4 weeks.
CB17-SCID mice bearing MM1S-luc derived tumors were treated with EDO-S101, daratumumab, a combination thereof, or vehicle, in accordance with the methods outlined above. MM1S-Luc cells (3×10^6) were intravenously injected into CB17-SCID mice. After 2 weeks, mice were randomized into four groups: one receiving vehicle (i.v., weekly), another group receiving EDO-S101 (15 mg/kg i.v., weekly on Tuesdays), another group receiving daratumumab (8 mg/kg i.p., weekly on Wednesdays) and the last group received the double combination of EDO-S101+daratumumab. Survival of mice analyzed with a Kaplan-Meier curve. Both drugs were administered over a period of 4 weeks.

In the case of `Cn1c(CCCCCCC(=O)NO)nc2cc(N(CCCl)CCCl)ccc21` [EDO-S101, 7-(5-(bis(2-chloroethyl)amino)-1-methyl-1H-benzo[d]imidazol-2-yl)-N-hydroxyheptanamide], the “CD38 expression, western blot” value in the assay on CD38 (MM1.S, JJN3, RPMI-8226, 1 and 2.5 μM) is “increased”. Moreover, the “increase in CD38 by Western blot and RT-qPCR” value in the assay with CD38 (MOLP-8 cells) is reported as “not observed”. For the same compound, the IRF-1 expression entry with IRF-1 is “increased”. Further, the “expression of c-Jun and c-Fos” value in assay [1] is “increased”. Besides, the “increase of MICB expression after treatment, patient cells” value in the assay on MICB is on record as “more than 1.5 fold”. Further, the figures for the “percentage of dead myeloma cells, daratumumab-mediated ADCC” value in assay [2] and in assay [2] (listed as tinostamustine) were “significantly enhanced” and “higher”, respectively. In addition, in the assay with MM1S-luc derived tumors, the median survival turned out to be 45 days.

Values taken from patent US20240252472A1, “COMBINATIONS FOR TREATING CANCER” (Purdue Pharma L.P., priority 2023, published 2024).
